Results reported in patent US20110230430A1, “SAPONIN EXTRACT FROM SAPONARIA SPP. AND USES THEREOF” (NATIONAL RESEARCH COUNCIL OF CANADA, priority 2008, published 2011).

Key:
CRL-2522 cells [1] = assay: Dual Sensor: MitoCasp Assay in CRL-2522 normal fibroblast cells; type: cell-based, human; settings: for Cells with caspase 3/7 activity / Cells with decreased mitochondrial membrane potential / Effect on apoptosis (in words) / Cells with Caspase 3/7 activity and decreased mitochondrial membrane potential vs untreated (in words): CRL-2522 cells; for Apoptosis in non-cancerous cell line (summary in words): fibroblast cell line CRL-2522, summary of the Examples
Text: Techniques to assay enzymatic and signaling processes involved in apoptosis have been developed as standard protocols. One example of an early step in apoptosis, is the release of cytochrome C from mitochondria and the activation of caspase-3. Induction of the caspases (a series of cytosolic proteases) is one of the most consistently observed features of apoptosis. Caspases are a family of proteolytic enzymes that transmit the apoptotic signal using a proteolytic cascade. […] Caspases 3 and 7 are effector caspases, central to the caspase cascade pathways. In particular, caspase-3 plays a central role in the process. When caspases are activated, they cleave target proteins; one of the most important of these is poly-(ADP-ribose) polymerase (PARP), which is a protein located in the nucleus. Therefore, assays detecting release of cytochrome C, detecting caspase-3 activity and detecting PARP degradation are effective determinants of apoptosis. The loss of mitochondrial membrane potential is known to occur during apoptosis. To analyze mitochondrial membrane potential, a cationic dye may be used which accumulates in the mitochondria of healthy cells. Collapse of the mitochondrial membrane potential during apoptosis prevents the dye from accumulating in the mitochondria resulting in a decrease in fluorescent intensity that can be detected with flow cytometry. Dual Sensor: MitoCasp™ (Cell Technology) used herein in the Examples is an assay that measures caspase 3/7 activity and cells with decreased mitochondrial membrane potential. In this assay, caspase 3/7 activity is detected using a cell permeable carboxyfluorescein labeled caspase inhibitor, which binds covalently to active caspases 3 and 7. Cells that contain bound inhibitor are detected by an increase in fluorescence when samples are analyzed by flow cytometry.
Following centrifugation at 500×g for 5 min, cell pellets were resuspended in PBS at 3.3×10^6 cells/mL. 300 μL cell suspension was mixed with 10 μL each of 30X Mitochondria Membrane Potential Dye and 30X Caspase 3/7 detection reagent. Following incubation for 60 min under normal growth conditions, cells were washed twice with 1× wash buffer and resuspended in 0.5 mL 1× wash buffer. Samples were analyzed by flow cytometry measuring the fluorescence emissions from 515 nm to 530 nm for caspase detection, and 574 nm to 600 nm for mitochondrial membrane potential detection.
CRL-2522 cells, acquired from ATCC, (American Type Culture Collection) are normal fibroblast cells that originated from human foreskin. CRL-2522 cells were maintained in RPMI 1640 medium (Gibco) supplemented with 10% fetal bovine serum (Cansera), 100 U/mL penicillin, 100 μg/mL streptomycin and 0.25 μg/mL amphotericin B. Cultures were maintained in medium at 37° C. with 5% CO2 and 100% relative humidity. […]

PC-3 cells = assay: Vybrant Apoptosis Assay Kit #2 in PC-3 cells; type: cell-based, human
Text: (§1) Another apoptotic assay is the Annexin-V detection of extracellular phosphatidlyserine (PS). Normally, phosphatidylserine is localized on the inner membrane of the plasmalemma. However, during the early stages of apoptosis, externalization of PS takes place. Annexin-V is a calcium binding protein which binds to PS and can be observed with annexin-V-FITC staining by flow cytometry (Martin, et al., 1995). Alexa Fluor® 488-labeled Annexin V, which has a high affinity for PS, is used to detect apoptotic cells by binding to PS on the outer surface of the cell. Propidium iodide staining is used concurrently to detect dead cells. When cells are analyzed by flow cytometry apoptotic cells show Annexin V staining, late apoptotic cells show PI and Annexin V staining, and dead cells show only PI staining. The Vybrant® Apoptosis Assay Kit #2 (Molecular Probes™) used herein in the Examples is an assay that measures Annexin-V positive cells.
PC-3 cells (ATCC #CRL-1435) were derived from a prostate adenocarcinoma (Kaighn et al., 1979). They were maintained in RPMI 1640 medium (Gibco) supplemented with 10% fetal bovine serum (Cansera), 100 U/mL penicillin, and 100 μg/mL streptomycin and 0.25 μg/mL amphotericin B. Cultures were maintained in medium at 37° C. with 5% CO2 and 100% relative humidity.
PC-3 cells were seeded in tissue culture flasks with regular growth medium and maintained under normal conditions. […] Following incubation under normal growth conditions for the specified time, cells were washed once with cold phosphate-buffered saline (PBS) (137 mM NaCl, 2.7 mM KCl, 4.3 mM Na2HPO4.7H2O, 1.4 mM KH2PO4) and harvested as previously described. Assays were carried out according to instructions given in kits. All Flow Cytometry was performed using a Coulter Epics XL (Beckman).

CRL-2522 cells [2] = assay: Vybrant Apoptosis Assay Kit #2 in CRL-2522 cells; type: cell-based, human
Text: as §1
CRL-2522 cells, acquired from ATCC, (American Type Culture Collection) are normal fibroblast cells that originated from human foreskin. CRL-2522 cells were maintained in RPMI 1640 medium (Gibco) supplemented with 10% fetal bovine serum (Cansera), 100 U/mL penicillin, 100 μg/mL streptomycin and 0.25 μg/mL amphotericin B. Cultures were maintained in medium at 37° C. with 5% CO2 and 100% relative humidity.
CRL-2522 cells were treated with PC1448 and assayed for apoptosis as described above for PC-3 cells.

[3] = Haemolytic properties of selected saponins; settings: saponins purified to more than 75%
Text: The haemolytic properties of the various saponins that have been purified to more than 75% have been examined and are provided in Table 39. Haemolytic properties are not directly related to anti-cancer or apoptosis inducing properties of saponins but may be related to toxicity and utility of the saponins for preparation of injectable formulations. Saponins most suitable for injectable formulation will be less haemolytic. QS21, a purified Quillaja saponaria saponin with known haemolytic activity is used as reference.

[4] = system: PC-3, MDA-MB-231, WiDr, and HT-29 Cells; assay: Order of apoptosis potency across cancer cell lines; parameters: species or system human; settings: rank based on responses observed in PC-3, MDA-MB-231, WiDr, and HT-29 Cells; 1 = most active

Segetoside I [PC1464]
Cells with caspase 3/7 activity (CRL-2522 cells [1]; 1.25 μM PC1464, 36 hr): 1.7% | Cells with decreased mitochondrial membrane potential (CRL-2522 cells [1]; 1.25 μM PC1464, 36 hr): 1.7% | Cells with caspase 3/7 activity (CRL-2522 cells [1]; 2.5 μM PC1464, 36 hr): 3.2% | Cells with decreased mitochondrial membrane potential (CRL-2522 cells [1]; 2.5 μM PC1464, 36 hr): 1.4% | Cells with caspase 3/7 activity (CRL-2522 cells [1]; 5.0 μM PC1464, 36 hr): 14.4% | Cells with decreased mitochondrial membrane potential (CRL-2522 cells [1]; 5.0 μM PC1464, 36 hr): 1.3% | Effect on apoptosis (in words) (CRL-2522 cells [1]; 7 μM PC1464, 10-30 hr): minimal effect | Cells with caspase 3/7 activity (CRL-2522 cells [1]; 7 μM PC1464, 10 hr): 3.2% | Cells with decreased mitochondrial membrane potential (CRL-2522 cells [1]; 7 μM PC1464, 10 hr): 4.4% | Cells with caspase 3/7 activity (CRL-2522 cells [1]; 7 μM PC1464, 20 hr): 11.7% | Cells with decreased mitochondrial membrane potential (CRL-2522 cells [1]; 7 μM PC1464, 20 hr): 4.4% | Cells with caspase 3/7 activity (CRL-2522 cells [1]; 7 μM PC1464, 30 hr): 16.9% | Cells with decreased mitochondrial membrane potential (CRL-2522 cells [1]; 7 μM PC1464, 30 hr): 5.1% | Cells with caspase 3/7 activity (CRL-2522 cells [1]; 10.0 μM PC1464, 36 hr): 19.9% | Cells with decreased mitochondrial membrane potential (CRL-2522 cells [1]; 10.0 μM PC1464, 36 hr): 2.2% | Cells with Caspase 3/7 activity and decreased mitochondrial membrane potential vs untreated (in words) (CRL-2522 cells [1]; PC1464 10.0-1.25 μM, 36 hours): slight increase | Apoptosis in non-cancerous cell line (summary in words) (CRL-2522 cells [1]): no or little apoptosis | Annexin-V positive cells (PC-3 cells; 7 μM PC1464, 10 hr): 21.0% | Annexin-V positive cells (PC-3 cells; 7 μM PC1464, 20 hr): 30.9% | Annexin-V positive cells (PC-3 cells; 7 μM PC1464, 30 hr): 44.7% | Increase in Annexin V positive cells vs untreated (PC-3 cells; 7 μM or 14 μM PC1464, 30 hr): three to six fold | Annexin-V positive cells (PC-3 cells; 14 μM PC1464, 10 hr): 11.5% | Annexin-V positive cells (PC-3 cells; 14 μM PC1464, 20 hr): 28.9% | Annexin-V positive cells (PC-3 cells; 14 μM PC1464, 30 hr): 49.4% | Effect on Annexin V positive cells (in words) (CRL-2522 cells [2]; 7 μM PC1464, 10-30 hr): little effect | Annexin-V positive cells (CRL-2522 cells [2]; 7 μM PC1464, 10 hr): 6.0% | Annexin-V positive cells (CRL-2522 cells [2]; 7 μM PC1464, 20 hr): 8.4% | Annexin-V positive cells (CRL-2522 cells [2]; 7 μM PC1464, 30 hr): 10.2% | HD50 [3]: 17.5 µM | Order of Apoptosis Potency [4]: 4

Segetoside H [PC1448]
Cells with caspase 3/7 activity (CRL-2522 cells [1]; 2.5 μM PC1448, 37 hr): 1.7% | Cells with decreased mitochondrial membrane potential (CRL-2522 cells [1]; 2.5 μM PC1448, 37 hr): 5.6% | Cells with caspase 3/7 activity (CRL-2522 cells [1]; 5.0 μM PC1448, 37 hr): 4.0% | Cells with decreased mitochondrial membrane potential (CRL-2522 cells [1]; 5.0 μM PC1448, 37 hr): 5.0% | Cells with caspase 3/7 activity (CRL-2522 cells [1]; 10.0 μM PC1448, 37 hr): 21.9% | Cells with decreased mitochondrial membrane potential (CRL-2522 cells [1]; 10.0 μM PC1448, 37 hr): 4.6% | Effect on apoptosis (in words) (CRL-2522 cells [1]; 14 μM PC1448, 10-30 hr): no significant effect on apoptosis | Cells with caspase 3/7 activity (CRL-2522 cells [1]; 14 μM PC1448, 10 hr): 3.7% | Cells with decreased mitochondrial membrane potential (CRL-2522 cells [1]; 14 μM PC1448, 10 hr): 1.4% | Cells with caspase 3/7 activity (CRL-2522 cells [1]; 14 μM PC1448, 20 hr): 5.5% | Cells with decreased mitochondrial membrane potential (CRL-2522 cells [1]; 14 μM PC1448, 20 hr): 1.4% | Cells with caspase 3/7 activity (CRL-2522 cells [1]; 14 μM PC1448, 30 hr): 32.8% | Cells with decreased mitochondrial membrane potential (CRL-2522 cells [1]; 14 μM PC1448, 30 hr): 0.8% | Cells with caspase 3/7 activity (CRL-2522 cells [1]; 15.0 μM PC1448, 37 hr): 9.4% | Cells with decreased mitochondrial membrane potential (CRL-2522 cells [1]; 15.0 μM PC1448, 37 hr): 18.5% | Cells with Caspase 3/7 activity and decreased mitochondrial membrane potential vs untreated (in words) (CRL-2522 cells [1]; PC1448 15.0-2.5 μM, 37 hours): variable increase | Apoptosis in non-cancerous cell line (summary in words) (CRL-2522 cells [1]): no or little apoptosis | Annexin-V positive cells (PC-3 cells; 14 μM PC1448, 06 hr): 12.4% | Annexin-V positive cells (PC-3 cells; 14 μM PC1448, 16 hr): 28.3% | Annexin-V positive cells (PC-3 cells; 14 μM PC1448, 24 hr): 34.7% | Increase in Annexin V positive cells vs untreated (PC-3 cells; 14 μM PC1448, 24 hr): three fold | Change in number of cells showing Annexin V staining (in words) (CRL-2522 cells [2]; 14 μM PC1448, 10-40 hr): No meaningful changes | Annexin-V positive cells (CRL-2522 cells [2]; 14 μM PC1448, 10 hr): 17.2% | Annexin-V positive cells (CRL-2522 cells [2]; 14 μM PC1448, 20 hr): 9.3% | Annexin-V positive cells (CRL-2522 cells [2]; 14 μM PC1448, 40 hr): 18.2% | HD50 [3]: 13.8 µM | Order of Apoptosis Potency [4]: 7
